Measurements: US12419937B2, “High concentration alpha-glucosidase compositions for the treatment of Pompe disease” (Amicus Therapeutics, Inc., priority 2012, dated 2025)
Entries after “also recorded” stand apart in the source; their conditions may differ. Structures can show the parent of a compound that is named as a salt.

Columns and labels:
[1] = target: T1, recombinant human GAA (Myozyme®) (Homo sapiens, UniProt P10253); assay: SYPRO Orange thermal stability assay (heat-induced denaturation); format: physicochemical; conditions: for stability of Myozyme® (heat required to denature) on addition of the ASSC: pH 7.4, 100 μM 1-DNJ-HCl, vs Myozyme® alone
T1 construct: purchased Genzyme Corp
Source text: The thermal stability assay utilizes heat to induce protein denaturation, which is monitored using a SYPRO Orange dye that fluoresces upon binding to hydrophobic amino acids (which are not exposed in a folded protein).
FIG. 5 depicts the results of a thermal stability assay that utilizes heat to induce protein denaturation, which is monitored using a SYPRO Orange dye that fluoresces upon binding to hydrophobic amino acids (which are not exposed in a folded protein).
Denaturation is monitored using a SYPRO Orange dye that fluoresces upon binding to hydrophobic amino acids (which are not exposed in a folded protein).
The thermal stability was performed at pH 7.4 for two formulations, which corresponds to the pH of the ER.

[2] = target: T1, recombinant human GAA (Myozyme®); assay: Residual GAA enzyme activity in buffer at 37° C. (4-MU-α-glucose); format: biochemical; conditions: 50 μM 1-DNJ, plasma pH (7.4), 24 hours
Protocol: GAA activity was evaluated to assess the ability of an ASSC of GAA to prolong the activity of the rhGAA over time. Myozyme® (45 nM) was incubated in pH 7.4 or pH 5.2 buffer with or without 50 μM 1-DNJ at 37° C. over 24 hours. Samples were assayed for GAA enzyme activity using 4-MU-α-glucose at 0, 3, 6 and 24 hours and the residual GAA activity was expressed as % of initial activity.
Residual GAA activity was determined for four formulations:
Activity was measured, based on the % of initial activity (t=0) over 24 hours. Samples were assayed for GAA enzyme activity based on the hydrolysis of the fluorogenic substrate 4-MU-α-glucose at 0, 3, 6 and 24 hours. The GAA activity was expressed as % of initial activity, i.e. residual activity.

[3] = target: T1, recombinant human GAA (Myozyme®); assay: SYPRO Orange protein folding monitored over 24 hours at 37° C.; format: physicochemical; conditions: 100 μM 1-DNJ-HCl, plasma pH
Protocol: FIG. 2B depicts a parallel SYPRO Orange thermal stability experiment to determine if the loss of enzyme activity shown in FIG. 2A, particularly the loss of Myozyme® activity at ER pH (7.4), correlates with protein unfolding and denaturation.
In order to determine if loss of initial enzyme activity is correlated to failure to maintain a proper conformation, a SYPRO Orange thermal stability experiment was performed on the samples above as generally described in Example 1. […] Based on this experiment, the % of GAA folded was estimated and plotted in FIG. 2B.

[4] = Aggregation of 25 mg/mL Myozyme® (Example 10); format: physicochemical; conditions: 1 mM DNJ with 25 mg/mL Myozyme®; pH 7.4; 37° C.; 4 weeks; listed as DNJ
Protocol: Aggregation was assessed after a 4 week incubation period.
A liquid formulation comprising DNJ and GAA was prepared by dissolving DNJ in water to achieve a concentration of 10 mM DNJ. GAA was reconstituted in 1.8 ml water, and dialyzed overnight in phosphate buffered-saline (pH 7.4). […] of DNJ (10 mM) was then be added to 400 microliters of GAA, such that the GAA was at a concentration of 25 mg/ml.
25 mg/mL Myozyme® was incubated with or without 1 mM DNJ in phosphate-buffered saline at pH 7.4. Aggregation of Myozyme® was assessed after incubation for 4 weeks at 37° C.

[5] = Circulating half-life and quadriceps uptake of Myozyme® in rats, tail vein (Example 11); format: in vivo, Sprague-Dawley rats; conditions: 30 mg/kg DNJ with 10 mg/kg Myozyme® via tail vein
Protocol: Sprague-Dawley rats were administered 10 mg/kg Myozyme® or 30 mg/kg DNJ mixed with 10 mg/kg Myozyme® via tail vein. GAA activity was measured in plasma and quadriceps tissue. Baseline GAA activity in quadriceps was subtracted (˜16 nmol/mg protein/hr) from the measured GAA following GAA or DNJ and GAA administration.

[6] = Circulating rhGAA after subcutaneous Myozyme® with or without DNJ (FIG. 14); format: in vivo; conditions: DNJ co-formulated with 20 mg/kg Myozyme® vs 20 mg/kg Myozyme® without DNJ
GAA KO mice [7] = assay: Myozyme® tissue uptake in GAA KO mice with and without oral 1-DNJ-HCl (Example 3); format: in vivo, mouse; conditions: 10, 100, 1000 mg/kg oral 1-DNJ-HCl with 10 mg/kg Myozyme® IV weekly; up to 7 days post injection
Protocol: Five groups of GAA KO mice were administered one of the following formulations: […]
(2) 10 mg/kg of Myozyme® IV once per week, for up to three weeks
Tissue homogenates were generated for analysis. Enzymatic activity as determined using a 4-MUG fluorogenic substrate assay.

GAA KO mice [8] = assay: rhGAA activity in heart and diaphragm of GAA KO mouse (Example 6); format: in vivo; conditions: co-administered with 1-DNJ-HCl vs ERT monotherapy
Protocol: Heart and Diaphragm tissue homogenates were harvested and rhGAA activity was measured using the fluorogenic substrate (4-MUG).

rhGAA (e.g., Myozyme®) = target: T2, rhGAA (e.g., Myozyme®) (Homo sapiens, UniProt P10253); assay: rhGAA enzyme inactivation in citrate anti-coagulated whole blood at 37° C. (Examples 7, 8); format: in vitro ADME
T2 construct: purchased Genzyme Corp; host or cells: Chinese hamster ovary cell line
Protocol: Aliquots were collected at 0, 2, 4, 8 and 24 hrs and centrifuged to obtain plasma. These plasma samples were then diluted in potassium acetate buffer (pH 4.0) and assayed for GAA activity using the 4-methylumbeliferyl-α-glucose (4-MUG) fluorogenic substrate. The measured GAA activity for individual samples at each time point was normalized to the 0 hr and expressed as % of initial activity. Data from 4 independent experiments were analyzed to obtain the mean (and standard deviation) and plotted versus time to assess the loss of enzyme activity over this time course.
Aliquots were collected at 0, 3 and 6 hrs and centrifuged to obtain plasma. These plasma samples were then diluted in potassium acetate buffer (pH 4.0) and assayed for GAA activity using the 4-methylumbeliferyl-α-glucose (4-MUG) fluorogenic substrate. The measured GAA activity for individual samples at each time point was normalized to the 0 hr and expressed as % of initial activity.
Moreover, since Myozyme® has a long plasma half-life (reported to be more than 3 hrs), there is a high probability that an appreciable amount of the enzyme remains in the circulation many hours after the infusion that would also be prone to inactivation.
Based on human plasma PK data, these concentrations are readily obtainable in the clinic.

[9] = test system: cell lines derived from late-onset Pompe patients with the IVS 1 (−13 T>G) splicing defect; assay: GAA levels in cell lines derived from late-onset Pompe patients; format: cell-based, human; conditions: alone and in combination with hrGAA
[10] = rat, in vivo, po, 30 mg/kg

Structure (SMILES) | stability of Myozyme® (heat required to denature) on addition of the ASSC [1] | effect on loss of GAA enzyme activity [2] | effect on GAA denaturation and loss of enzyme activity [3] | aggregation of Myozyme® [4] | tissue uptake of Myozyme® in quadriceps [5] | circulating levels of rhGAA [6] | GAA thermostability (GAA's melting temperature) ([1]; 1, 10, 100 μM 1-DNJ-HCl, dose-dependent) | stability of Myozyme® (heat required to denature) on addition of the ASSC ([1]; hydrochloride) | Myozyme® tissue uptake (as a measure of GAA activity), effect of coadministration (GAA KO mice [7]) | rhGAA uptake in the heart and diaphragm (GAA KO mice [8]) | loss of rhGAA activity in whole blood (rhGAA (e.g., Myozyme®); 2.5 μM 1-DNJ-HCl, 6-hr time course) [%] | effect on rhGAA enzyme inactivation in whole blood (rhGAA (e.g., Myozyme®); 50 μM 1-DNJ-HCl, Myozyme® 0.5 μM, up to 24 hrs, hydrochloride) | stabilizing rhGAA in whole blood, concentration comparison (rhGAA (e.g., Myozyme®); 50 and 100 μM 1-DNJ-HCl, 6 hrs) | GAA levels [9] | increase of plasma half-life of rhGAA [10] [fold]
OC[C@H]1NC[C@H](O)[C@@H](O)[C@@H]1O [1-DNJ, 1-deoxynojirimycin] | significantly increased | ameliorates the loss of GAA enzyme activity | can prevent GAA denaturation and loss of enzyme activity | reduces aggregation | increased | increased the circulating levels of rhGAA |  |  |  |  |  |  |  |  | 
OC[C@H]1NC[C@H](O)[C@@H](O)[C@@H]1O [1-DNJ-HCl, 1-deoxynojirimycin hydrochloride] |  |  |  |  |  |  | increases GAA thermostability | required significantly more heat to denature | dose-dependent increase in Myozyme® uptake | increased | ~20 | stabilized rhGAA and prevented enzyme inactivation; also recorded: prevents rhGAA enzyme inactivation | best for stabilizing rhGAA and preventing enzyme inactivation | increased GAA levels | 2
